These results are taken from patent US20060287319A1, “Anti-viral compositions comprising heterocyclic substituted phenyl furans and related compounds” (priority 2005, published 2006).

Where two headings read alike, the source gives them in different places.

Series [1] has as its target gp41 six-helix bundle formation between N36 and C34 (Human immunodeficiency virus type 1 group M subtype B, UniProt P04578). Conditions: read-out: IC50 for inhibition of six-helix bundle formation between N36 and C34; sandwich ELISA, FIG. 3. On the procedure:
ELISA for screening for compounds that inhibit the gp41 six-helix bundle formation. A sandwich ELISA as previously described (27) was used to screen for compounds that inhibit the gp41 six-helix bundle formation. Briefly, peptide N36 (2 μM) was pre-incubated with a test compound at the indicated concentrations at 37° C. for 30 min, followed by addition of C34 (2 μM). In the control experiments, N36 was pre-incubated with C34 at 37° C. for 30 min, followed by addition of the test compound. After incubation at 37° C. for 30 min, the mixture was added to wells of a 96-well polystyrene plate (Costar, Corning Inc., Corning, N.Y.) which were precoated with IgG (2 μg/ml) purified from rabbit antisera directed against the N36/C34 mixture. […] Absorbance at 450 nm was measured using an ELISA reader (Ultra 384, Tecan, Research Triangle Park, N.C.). […] Chou (Sloan-Kettering Cancer Center, New York, N.Y.).
A model system of the gp41 six-helix bundle was established by mixing the N— and C-peptides at equal molar concentrations (16).
(In general: An ELISA detects its analyte on a solid surface through an enzyme-linked reagent.)

In a further series the test system is HIV-1 IIIB. Put plainly: HIV-1-mediated cytopathic effect (CPE). The class given is cell-based. The following applies: read-out: EC50 (μM) (M ± SD) for inhibition of CPE. From the text: We thus purchased these compounds and tested their inhibitory activity on: 1) HIV-1 replication (p24 production); 2) HIV-1-mediated cytopathic effect (CPE); and 3) HIV-1 Env-induced cell-cell fusion; and their cytotoxicity to MT-2 cells.
For orientation: Cytopathic effects are the visible damage that an infection or toxin causes in cultured cells.

The mark [2] stands for this setting: read-out: Cytotoxicity CC50 (μM) (M ± SD), MT-2 cells.

Sequence of gp41 six-helix bundle formation between N36 and C34 (P04578 546-581): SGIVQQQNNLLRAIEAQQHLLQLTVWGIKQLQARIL

With `O=C(O)c1cccc(-c2ccc(/C=C3\SC(=S)N(c4ccc(Cl)cc4Cl)C3=O)o2)c1` [NB231], the IC50 in series [1] was found to be 930 ± 330 nM. Also, the EC50 in the series with HIV-1 IIIB amounted to 0.525 ± 0.126 µM. In addition, the CC50 in the series with MT-2 cells (setting [2]) amounted to 124.1 ± 0.756 µM.

Regarding `O=C(O)c1cc(-c2ccc(/C=C3\SC(=S)N(CCc4ccccc4)C3=O)o2)ccc1Cl` [NB206], the IC50 in series [1] is 830 ± 30 nM. Also, the EC50 with HIV-1 IIIB was found to be 0.092 ± 0.002 µM. Moreover, the CC50 with MT-2 cells (setting [2]) is 18.8 ± 7.48 µM.

Consider `CCN1C(=O)/C(=C/c2ccc(-c3cccc(C(=O)O)c3)o2)SC1=S` [NB179], for which, in series [1], the IC50 worked out at 2510 ± 270 nM. Moreover, the concentration for a half-maximal effect (EC50) with HIV-1 IIIB was determined as 0.924 ± 0.077 µM. Further, the CC50 in the series on MT-2 cells is more than 616 µM.

Usually IC50 stands for the concentration at which inhibition is half-maximal. The term EC50 denotes the concentration that produces a half-maximal response. What is called CC50 is the concentration at which the toxic effect on the cells reaches its halfway point.
